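A five-concentration, 48-hour dose response in 96-well plates underlies each endpoint, interpolated linearly between surrounding concentrations. At the TGI there is no net growth.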
Tests used:
Experiment in all cases: DTP human tumour cell line panel, 48 h
HOP-62 NSCLC = test system: HOP-62 NSCLC
MALME-3M melanoma = test system: MALME-3M melanoma
CCRF-CEM leukemia = test system: CCRF-CEM leukemia
LOX IMVI melanoma = test system: LOX IMVI melanoma
SNB-19 CNS = test system: SNB-19 CNS
786-0 renal = test system: 786-0 renal
OVCAR-4 ovarian = test system: OVCAR-4 ovarian
KM12 colon = test system: KM12 colon
A549 NSCLC = test system: A549 NSCLC
K-562 leukemia = test system: K-562 leukemia
M19-MEL melanoma = test system: M19-MEL melanoma
HOP-18 NSCLC = test system: HOP-18 NSCLC
IGROV1 ovarian = test system: IGROV1 ovarian
NCI-H23 lung = test system: NCI-H23 lung
M14 melanoma = test system: M14 melanoma
KM20L2 colon = test system: KM20L2 colon
SF-539 CNS = test system: SF-539 CNS
DLD-1 colon = test system: DLD-1 colon
MOLT-4 leukemia = test system: MOLT-4 leukemia
HT29 colon = test system: HT29 colon
RXF-631 renal = test system: RXF-631 renal
OVCAR-5 ovarian = test system: OVCAR-5 ovarian
NCI-H460 lung = test system: NCI-H460 lung
HCC-2998 colon = test system: HCC-2998 colon
DMS 273 small cell lung = test system: DMS 273 small cell lung
DMS 114 small cell lung = test system: DMS 114 small cell lung
EKVX NSCLC = test system: EKVX NSCLC
U251 CNS = test system: U251 CNS
SK-MEL-5 melanoma = test system: SK-MEL-5 melanoma
SW-620 colon = test system: SW-620 colon
UACC-257 melanoma = test system: UACC-257 melanoma
ACHN renal = test system: ACHN renal
UACC-62 melanoma = test system: UACC-62 melanoma
UO-31 renal = test system: UO-31 renal
OVCAR-3 ovarian = test system: OVCAR-3 ovarian
SN12C renal = test system: SN12C renal
NCI-H522 lung = test system: NCI-H522 lung
CAKI-1 renal = test system: CAKI-1 renal
SK-OV-3 ovarian = test system: SK-OV-3 ovarian
LXFL 529 NSCLC = test system: LXFL 529 NSCLC
RXF 393 renal = test system: RXF 393 renal
SK-MEL-28 melanoma = test system: SK-MEL-28 melanoma
HCT-116 colon = test system: HCT-116 colon
SF-268 CNS = test system: SF-268 CNS
TK-10 renal = test system: TK-10 renal
SF-295 CNS = test system: SF-295 CNS
SNB-78 CNS = test system: SNB-78 CNS
RPMI-8226 leukemia = test system: RPMI-8226 leukemia
SNB-75 CNS = test system: SNB-75 CNS
SR leukemia = test system: SR leukemia
COLO 205 colon = test system: COLO 205 colon
OVCAR-8 ovarian = test system: OVCAR-8 ovarian
HOP-92 NSCLC = test system: HOP-92 NSCLC
HCT-15 colon = test system: HCT-15 colon
NCI-H226 lung = test system: NCI-H226 lung
SK-MEL-2 melanoma = test system: SK-MEL-2 melanoma
A498 renal = test system: A498 renal
HL-60(TB) leukemia = test system: HL-60(TB) leukemia

C[N+](C)(C)CC1CCCC/C1=N\OC(=O)c1ccccc1 (stereo not given) was tested, and the TGI (HOP-62 NSCLC) was > 100 µM, the TGI (MALME-3M melanoma) was > 100 µM and the TGI (CCRF-CEM leukemia) was > 100 µM. The TGI (LOX IMVI melanoma) was > 100 µM, the TGI (SNB-19 CNS) was > 100 µM and the TGI (786-0 renal) was > 100 µM. The TGI (OVCAR-4 ovarian) was > 100 µM, the TGI (KM12 colon) was > 100 µM and the TGI (A549 NSCLC) was > 100 µM. For the same compound, the TGI (K-562 leukemia) was > 100 µM, the TGI (M19-MEL melanoma) was > 100 µM and the TGI (HOP-18 NSCLC) was > 100 µM. For the same compound, the TGI (IGROV1 ovarian) was > 100 µM, the TGI (NCI-H23 lung) was > 100 µM and the TGI (M14 melanoma) was > 100 µM. The TGI (KM20L2 colon) was > 100 µM, the TGI (SF-539 CNS) was > 100 µM and the TGI (DLD-1 colon) was > 100 µM. The TGI (MOLT-4 leukemia) was > 100 µM, the TGI (HT29 colon) was > 100 µM and the TGI (RXF-631 renal) was > 100 µM. For the same compound, the TGI (OVCAR-5 ovarian) was > 100 µM, the TGI (NCI-H460 lung) was > 100 µM and the TGI (HCC-2998 colon) was > 100 µM. For the same compound, the TGI (DMS 273 small cell lung) was > 100 µM, the TGI (DMS 114 small cell lung) was > 100 µM and the TGI (EKVX NSCLC) was > 100 µM. For the same compound, the TGI (U251 CNS) was > 100 µM, the TGI (SK-MEL-5 melanoma) was > 100 µM and the TGI (SW-620 colon) was > 100 µM. The TGI (UACC-257 melanoma) was > 100 µM, the TGI (ACHN renal) was > 100 µM and the TGI (UACC-62 melanoma) was > 100 µM. For the same compound, the TGI (UO-31 renal) was > 100 µM, the TGI (OVCAR-3 ovarian) was > 100 µM and the TGI (SN12C renal) was > 100 µM. The TGI (NCI-H522 lung) was > 100 µM, the TGI (CAKI-1 renal) was > 100 µM and the TGI (SK-OV-3 ovarian) was > 100 µM. The TGI (LXFL 529 NSCLC) was > 100 µM, the TGI (RXF 393 renal) was > 100 µM and the TGI (SK-MEL-28 melanoma) was > 100 µM. The TGI (HCT-116 colon) was > 100 µM, the TGI (SF-268 CNS) was > 100 µM and the TGI (TK-10 renal) was > 100 µM. For the same compound, the TGI (SF-295 CNS) was > 100 µM, the TGI (SNB-78 CNS) was > 100 µM and the TGI (RPMI-8226 leukemia) was > 100 µM. The TGI (SNB-75 CNS) was > 100 µM, the TGI (SR leukemia) was > 100 µM and the TGI (COLO 205 colon) was > 100 µM. For the same compound, the TGI (OVCAR-8 ovarian) was > 100 µM, the TGI (HOP-92 NSCLC) was > 100 µM and the TGI (HCT-15 colon) was > 100 µM.

Work on CC1CC[C@]2(C(=O)O)CCC3(COC(=O)/C=C\c4ccc(O)cc4)C(=CCC4[C@@]5(C)CC[C@H](O)C(C)(C)C5CC[C@]43C)[C@@H]2[C@H]1C (stereo not given in full) yielded a TGI (NCI-H226 lung) of 39.5 µM, a TGI (MALME-3M melanoma) of 87.9 µM and a TGI (CCRF-CEM leukemia) of 81.9 µM. For the same compound, the TGI (LOX IMVI melanoma) was 28.2 µM, the TGI (SNB-19 CNS) was 32.7 µM and the TGI (786-0 renal) was 43.4 µM. The TGI (OVCAR-4 ovarian) was > 100 µM, the TGI (KM12 colon) was 25.7 µM and the TGI (A549 NSCLC) was 26.3 µM. For the same compound, the TGI (K-562 leukemia) was > 100 µM, the TGI (M19-MEL melanoma) was 50.8 µM and the TGI (HOP-18 NSCLC) was 69.8 µM. The TGI (IGROV1 ovarian) was 26.8 µM, the TGI (NCI-H23 lung) was 28.5 µM and the TGI (M14 melanoma) was 37.7 µM. The TGI (KM20L2 colon) was 33.6 µM, the TGI (SF-539 CNS) was 31.3 µM and the TGI (DLD-1 colon) was 30.8 µM. For the same compound, the TGI (SK-MEL-2 melanoma) was 51.8 µM, the TGI (MOLT-4 leukemia) was > 100 µM and the TGI (HT29 colon) was 35.5 µM. For the same compound, the TGI (RXF-631 renal) was 77.9 µM, the TGI (OVCAR-5 ovarian) was 48.9 µM and the TGI (NCI-H460 lung) was 35.5 µM. The TGI (HCC-2998 colon) was 33 µM, the TGI (DMS 273 small cell lung) was 50.3 µM and the TGI (DMS 114 small cell lung) was > 100 µM. It also gave a TGI (A498 renal) of 60.4 µM, a TGI (EKVX NSCLC) of 32.8 µM and a TGI (HL-60(TB) leukemia) of 72.8 µM. For the same compound, the TGI (U251 CNS) was 23.4 µM, the TGI (SK-MEL-5 melanoma) was 40.7 µM and the TGI (SW-620 colon) was > 100 µM. For the same compound, the TGI (UACC-257 melanoma) was 69.6 µM, the TGI (ACHN renal) was 22.5 µM and the TGI (UACC-62 melanoma) was 32.6 µM. The TGI (UO-31 renal) was 32.1 µM, the TGI (OVCAR-3 ovarian) was 37.1 µM and the TGI (SN12C renal) was 54.2 µM. It also gave a TGI (NCI-H522 lung) of 44.6 µM, a TGI (CAKI-1 renal) of 48.3 µM and a TGI (SK-OV-3 ovarian) of 21.6 µM. The TGI (LXFL 529 NSCLC) was > 100 µM, the TGI (RXF 393 renal) was 33.9 µM and the TGI (SK-MEL-28 melanoma) was 35.5 µM. For the same compound, the TGI (HCT-116 colon) was 37 µM, the TGI (SF-268 CNS) was 30.8 µM and the TGI (TK-10 renal) was 44.7 µM. The TGI (SF-295 CNS) was 31.7 µM, the TGI (SNB-78 CNS) was > 100 µM and the TGI (RPMI-8226 leukemia) was > 100 µM. For the same compound, the TGI (SNB-75 CNS) was 80.9 µM, the TGI (SR leukemia) was 76.1 µM and the TGI (COLO 205 colon) was 50.9 µM. The TGI (OVCAR-8 ovarian) was 46.3 µM and the TGI (HCT-15 colon) was > 100 µM.

From PubChem BioAssay (NCI)
